In patent US12435044B2, “Pyridazinone herbicides and pyridazinone intermediates used to prepare a herbicide” (FMC Corporation, priority 2018, dated 2025):

Legend:
Test in all cases: Test H postemergence, mixtures of Cpd. No. 20 with atrazine or glyphosate
Assay type in all cases: in vivo
[1] = test system: soybean (GLXMA; Glycine max, cv. Pioneer 35T58)
From the text: (§1) This test evaluated the effect of mixtures of Cpd. No. 20 with atrazine or glyphosate on several plant species. Seeds of plant species selected from corn (ZEAMD; Zea mays, cv. ‘Pioneer 1184’), soybean (GLXMA; Glycine max, cv. Pioneer 35T58), giant foxtail (SETFA; Setaria faberi), Surinamgrass (BRADC; Brachiaria decumbens), fall panicum (PANDI; Panicum dichotomiflorum), velvetleaf (ABUTH; Abutilon threophrasti), mare's tail (ERICA; Conyza canadensis), barnyardgrass (ECHCG; Echinochloa crus-galli), large crabgrass (DIGSA; Digitaria sanguinalis), palmer amaranth (AMAPA; Amaranthus palmeri), common waterhemp (AMATU; Amaranthus rudis), E. black nightshade (SOLPT; Solanum ptycanthum), and common ragweed (AMBEL; Ambrosia artemisiifolia) were planted in pots containing Redi-Earth® planting medium (Scotts Company, 14111 Scottslawn Road, Marysville, Ohio 43041) comprising spaghnum peat moss, vermiculite, wetting agent and starter nutrients and treated postemergence using test chemicals formulated in a non-phytotoxic solvent mixture which included a surfactant. Plants ranged in height from 2 to 10 cm and were in the one- to two-leaf stage for the postemergence treatment. Treated plants and untreated controls were maintained in a greenhouse for approximately 14 d, after which time all treated plants were compared to untreated controls and visually evaluated for injury. Plant response ratings, summarized in Tables H1 & H2, are based on a 0 to 100 scale where 0 is no effect and 100 is complete control. A dash (-) response means no test result. Test results are presented as a mean of 4 reps.

[2] = test system: corn (ZEAMD; Zea mays, cv. ‘Pioneer 1184’)
From the text: as §1

[3] = test system: palmer amaranth (AMAPA; Amaranthus palmeri)
From the text: as §1

[4] = test system: velvetleaf (ABUTH; Abutilon threophrasti)
From the text: as §1

[5] = test system: Surinamgrass (BRADC; Brachiaria decumbens)
From the text: as §1

[6] = test system: giant foxtail (SETFA; Setaria faberi)
From the text: as §1

[7] = test system: common waterhemp (AMATU; Amaranthus rudis)
From the text: as §1

[8] = test system: barnyardgrass (ECHCG; Echinochloa crus-galli)
From the text: as §1

[9] = test system: E. black nightshade (SOLPT; Solanum ptycanthum)
From the text: as §1

[10] = test system: fall panicum (PANDI; Panicum dichotomiflorum)
From the text: as §1

[11] = test system: mare's tail (ERICA; Conyza canadensis)
From the text: as §1

[12] = test system: large crabgrass (DIGSA; Digitaria sanguinalis)
From the text: as §1

[13] = test system: common ragweed (AMBEL; Ambrosia artemisiifolia)
From the text: as §1

Cc1ccc2ccc(C)c(-c3c(O)c(Cl)nn(C)c3=O)c2c1 [Cpd. No. 20, 6-chloro-4-(2,7-dimethyl-1-naphthalenyl)-5-hydroxy-2-methyl-3(2H)-pyridazinone]
Observed result (plant response rating), GLXMA ([1]; applied alone at 31 g a.i./ha): 30
Observed result (plant response rating), GLXMA ([1]; applied alone at 62 g a.i./ha): 21
Observed result (plant response rating), GLXMA ([1]; applied alone at 125 g a.i./ha): 18
Observed result (plant response rating), ZEAMD ([2]; applied alone at 31 g a.i./ha): 0
Observed result (plant response rating), ZEAMD ([2]; applied alone at 62 g a.i./ha): 0
Observed result (plant response rating), ZEAMD ([2]; applied alone at 125 g a.i./ha): 0
Observed result (plant response rating), AMAPA ([3]; applied alone at 31 g a.i./ha): 10
Observed result (plant response rating), AMAPA ([3]; applied alone at 62 g a.i./ha): 36
Observed result (plant response rating), AMAPA ([3]; applied alone at 125 g a.i./ha): 54
Observed result (plant response rating), ABUTH ([4]; applied alone at 31 g a.i./ha): 76
Observed result (plant response rating), ABUTH ([4]; applied alone at 62 g a.i./ha): 89
Observed result (plant response rating), ABUTH ([4]; applied alone at 125 g a.i./ha): 94
Observed result (plant response rating), BRADC ([5]; applied alone at 31 g a.i./ha): 73
Observed result (plant response rating), BRADC ([5]; applied alone at 62 g a.i./ha): 84
Observed result (plant response rating), BRADC ([5]; applied alone at 125 g a.i./ha): 93
Observed result (plant response rating), SETFA ([6]; applied alone at 31 g a.i./ha): 71
Observed result (plant response rating), SETFA ([6]; applied alone at 62 g a.i./ha): 79
Observed result (plant response rating), SETFA ([6]; applied alone at 125 g a.i./ha): 80
Observed result (plant response rating), AMATU ([7]; applied alone at 31 g a.i./ha): 70
Observed result (plant response rating), AMATU ([7]; applied alone at 62 g a.i./ha): 80
Observed result (plant response rating), AMATU ([7]; applied alone at 125 g a.i./ha): 80
Observed result (plant response rating), ECHCG ([8]; applied alone at 31 g a.i./ha): 100
Observed result (plant response rating), ECHCG ([8]; applied alone at 62 g a.i./ha): 100
Observed result (plant response rating), ECHCG ([8]; applied alone at 125 g a.i./ha): 100
Observed result (plant response rating), SOLPT ([9]; applied alone at 31 g a.i./ha): 86
Observed result (plant response rating), SOLPT ([9]; applied alone at 62 g a.i./ha): 93
Observed result (plant response rating), SOLPT ([9]; applied alone at 125 g a.i./ha): 95
Observed result (plant response rating), PANDI ([10]; applied alone at 31 g a.i./ha): 73
Observed result (plant response rating), PANDI ([10]; applied alone at 62 g a.i./ha): 84
Observed result (plant response rating), PANDI ([10]; applied alone at 125 g a.i./ha): 89
Observed result (plant response rating), ERICA ([11]; applied alone at 31 g a.i./ha): 85
Observed result (plant response rating), ERICA ([11]; applied alone at 62 g a.i./ha): 85
Observed result (plant response rating), ERICA ([11]; applied alone at 125 g a.i./ha): 88
Observed result (plant response rating), DIGSA ([12]; applied alone at 31 g a.i./ha): 34
Observed result (plant response rating), DIGSA ([12]; applied alone at 62 g a.i./ha): 29
Observed result (plant response rating), DIGSA ([12]; applied alone at 125 g a.i./ha): 36
Observed result (plant response rating), AMBEL ([13]; applied alone at 31 g a.i./ha): 89
Observed result (plant response rating), AMBEL ([13]; applied alone at 62 g a.i./ha): 94
Observed result (plant response rating), AMBEL ([13]; applied alone at 125 g a.i./ha): 98
